Ends that are not written are not given here.
Test system: bleomycin-induced skin sclerosis
Conditions: mouse, in vivo
Description: Two emulsions or creams were prepared, an emulsion containing peptide P144 and a control emulsion with the vehicle for administration but without P144.
The control emulsion with the vehicle for administration was prepared by a procedure that starts with mixing of the components that are shown below in Table 2:
Next, this mixture was heated at 70° C. and was emulsified with 44.4 g of distilled water (also at 70° C.).
The emulsion containing the P144 was prepared as previously, except that the 44.4 g of water was replaced with a mixture of 44.28 g of water plus 0.010 g of P144 previously dissolved in 100 μl of dimethylsulphoxide.
The test was carried out using 6-week-old female C3H mice, supplied by Harlan SL (Spain). Development of skin sclerosis in the mice was induced by the administration of bleomycin (Sigma, Spain) dissolved in PBS at a concentration of 100 μg/ml and sterilized by filtration. The mice were injected with the bleomycin subcutaneously in the skin of the back, previously shaved, at daily doses of 100 μl of the solution in PBS injected with size 27 needles. […]
The thickness of the dermis was measured on the digitized images of the sections stained with haematoxylin and eosin, and then the percentage variation in thickness of the dermis was calculated relative to the mean of the values obtained for the mice treated with PBS, adjusted to 100%. […]

Sequence: TSLDASIIWAMMQN [Peptide P144]
- morphological changes in the epidermis: No changes were observed
- signs of systemic toxicity: without signs of systemic toxicity

Reference: patent US7582609B2, “Method for the treatment of skin fibrosis and suitable compositions for such treatment” (Digna Biotech, S.L., priority 2006, dated 2009)
